Measured values published in patent US4442087A (priority 1979, dated 1984).

Key:
Assay type in all cases: cell-based
[1] = system: Mouse spleen cells (L cells used for determination); assay: IF induction in vitro, mouse cells; details: 1.0 μg/ml, 37 °C 24 h
Experimental: (§1) (A) IF induction and determination of IF activity:
(§2) A spleen cell suspension (10^7 cells/ml) was prepared by the method of hereinafter described Experiment 1 using an Eagle MEM medium (commercial product of Nissui Seiyaku K.K., Tokyo) containing a 10% calf serum (which was replaced by a 10% fetal cattle serum in the cases of human tests), each of which fraction (1 ml) was added with the sample of the active substance at a given concentration and incubated at a given temperature. The cultured liquor was centrifuged to separate a supernatant for use to determine the IF activity. Furthermore, in the cases of human tests, the fresh spleen was collected from a person (adult killed by external wounds) and used for the preparation of a leucocytes suspension on each occasion, and also blood was collected from the vein at the armpit of a person (adult, healthy) from which the serum was separated to use for the preparation of a serum suspension on each occasion. The IF activities were determined by using the cells shown in Table 5 by the method of hereinafterdescribed Experiment 1 and indicated in Table 6.

[2] = system: Human spleen cells (FL cells used for determination); assay: IF induction in vitro, human spleen cells; details: 1.0 μg/ml, 25 °C 24 h
Experimental: as §1, §2

[3] = system: Rabbit spleen cells (RK-13 cells used for determination); assay: IF induction in vitro, rabbit cells; details: 1.0 μg/ml, 25 °C 24 h
Experimental: as §1, §2

## Poly: IC
[1]
  IF activity in vitro: 120
[2]
  IF activity in vitro: < 5
[3]
  IF activity in vitro: 220
